Some results are limits rather than exact numbers.

26 compounds from patent US10377770B2 (Novartis AG, priority 2015, dated 2019) can be followed below.

The target in the experiment is C-Raf FL (full length CRAF with Y340E and Y341E activating mutations, co-expressed with h14-3-3 zeta) (Homo sapiens (Human), UniProt P04049, Y340E/Y341E). The experiment can be described thus: In vitro Raf activity determination, AlphaScreen p-MEK readout, c-Raf (C-Raf FL). The experiment is classed as biochemical. Particulars: c-Raf approximately 4 nM, ATP 1 μM, pre-incubation 60 minutes, reaction 1 hour. An outline of the steps:
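Full-length C-Raf (~4 nM) pre-incubated 60 min at room temperature with compound and kinase-dead biotinylated MEK1 (~10 nM) in Tris pH 7.5, 15 mM MgCl2, BSA, DTT. Reaction started with 1 μM ATP and run 1 h at room temperature. Phospho-MEK detected by AlphaScreen with anti-p-MEK antibody.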

C-Raf FL (full length CRAF with Y340E and Y341E activating mutations, co-expressed with h14-3-3 zeta), sequence (P04049 whole entry Y340E/Y341E): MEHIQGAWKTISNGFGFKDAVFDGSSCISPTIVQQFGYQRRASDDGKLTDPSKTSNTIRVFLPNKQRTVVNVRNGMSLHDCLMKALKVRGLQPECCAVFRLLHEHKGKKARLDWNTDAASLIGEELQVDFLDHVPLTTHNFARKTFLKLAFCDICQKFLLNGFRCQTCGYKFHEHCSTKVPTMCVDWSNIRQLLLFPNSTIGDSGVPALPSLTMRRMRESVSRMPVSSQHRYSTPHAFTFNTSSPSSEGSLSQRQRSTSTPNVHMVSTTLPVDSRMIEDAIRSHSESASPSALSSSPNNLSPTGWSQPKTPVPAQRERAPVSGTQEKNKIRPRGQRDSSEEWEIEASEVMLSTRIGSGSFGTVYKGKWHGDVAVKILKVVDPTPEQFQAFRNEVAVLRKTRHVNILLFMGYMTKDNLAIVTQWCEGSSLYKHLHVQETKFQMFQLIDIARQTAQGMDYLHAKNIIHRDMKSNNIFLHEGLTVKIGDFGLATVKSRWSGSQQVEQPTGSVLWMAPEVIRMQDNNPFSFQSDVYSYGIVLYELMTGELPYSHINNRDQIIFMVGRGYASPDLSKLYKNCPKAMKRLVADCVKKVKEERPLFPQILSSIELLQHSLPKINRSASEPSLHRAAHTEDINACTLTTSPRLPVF
C-Raf FL (full length CRAF with Y340E and Y341E activating mutations, co-expressed with h14-3-3 zeta), sequence (P63104 whole entry partner): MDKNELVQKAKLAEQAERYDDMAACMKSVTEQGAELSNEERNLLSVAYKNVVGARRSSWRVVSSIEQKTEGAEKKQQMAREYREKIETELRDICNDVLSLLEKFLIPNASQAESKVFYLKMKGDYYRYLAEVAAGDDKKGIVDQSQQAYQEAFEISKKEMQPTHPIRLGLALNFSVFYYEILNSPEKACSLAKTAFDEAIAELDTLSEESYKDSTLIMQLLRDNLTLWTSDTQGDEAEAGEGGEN

Broadly, the IC50 is the concentration at which inhibition is half-maximal. High values mean weaker potency in that assay, low ones greater potency in that assay. On to `CCN1C(=O)[C@H]2COCC[C@]2(C)c2cc(-c3cc(NC(=O)c4ccnc(C(C)(F)F)c4)ccc3C)cnc21` (stereo in doubt) [Example 344, 2-(1,1-difluoroethyl)-N-(3-((4a,10b-trans)6-ethyl-10b-methyl-5-oxo-2,4,4a,5,6,10b-hexahydro-1H-pyrano[3,4-c][1,8]naphthyridin-9-yl)-4-methylphenyl)isonicotinamide], for which the IC50 was determined as 0.1 nM.
`CCN1C(=O)C2COCC[C@]2(C)c2cc(-c3cc(NC(=O)c4cncc(C(F)(F)F)c4)ccc3C)cnc21` (stereo in doubt) [Example 345, N-(3-((4a,10b-trans)-6-ethyl-10b-methyl-5-oxo-1,4,4a,5,6,10b-hexahydro-2H-pyrano[3,4-c][1,8]naphthyridin-9-yl)-4-methylphenyl)-5-(trifluoromethyl)nicotinamide] came in with an IC50 of 0.8 nM.
Take `CCN1C(=O)C2COCC[C@@]2(C)c2cc(-c3cc(NC(=O)c4cncc(C(F)(F)F)c4)ccc3C)cnc21` (stereo in doubt) [Example 346, N-(3-((4a,10b-trans)-6-ethyl-10b-methyl-5-oxo-1,4,4a,5,6,10b-hexahydro-2H-pyrano[3,4-c][1,8]naphthyridin-9-yl)-4-methylphenyl)-5-(trifluoromethyl)nicotinamide]: the half-inhibitory concentration (IC50) was 0.1 nM.
The value for `Cc1ccc(NC(=O)c2ccnc(C(C)(C)F)c2)cc1-c1cc2n(c(=O)c1)CCC1CCOCCN21` (stereo in doubt) [Example 418, (S)-2-(2-fluoropropan-2-yl)-N-(4-methyl-3-(9-oxo-1,2,5,5a,6,7-hexahydro-4H,9H-pyrido[2′,1′:2,3]pyrimido[1,6-d][1,4]oxazepin-11-yl)phenyl)isonicotinamide] was 2.1 nM; that for `CCOC(=O)c1c2n(c3cc(-c4cc(NC(=O)c5ccnc(C(F)(F)F)c5)ccc4C)ccc3c1=O)CCOC2` [Example 1, ethyl 9-(2-methyl-5-(2-(trifluoromethyl)isonicotinamido)phenyl)-6-oxo-1,2,4,6-tetrahydro-[1,4]oxazino[4,3-a]quinoline-5-carboxylate] was 0.045 nM.
`Cc1ccc(NC(=O)c2ccnc(C(F)(F)F)c2)cc1-c1ccc2c(=O)c(C(=O)O)c3n(c2c1)CCOC3` [Example 2, 9-(2-methyl-5-(2-(trifluoromethyl)isonicotinamido)phenyl)-6-oxo-1,2,4,6-tetrahydro-[1,4]oxazino[4,3-a]quinoline-5-carboxylic Acid] showed a concentration for half-maximal inhibition (IC50) of 0.136 nM. Compared with the last compound, the IC50 is about 3-fold higher.
The compound `Cc1ccc(NC(=O)c2ccnc(C(F)(F)F)c2)cc1-c1ccc2c(c1)N1CCOC[C@H]1C[C@H]2O` [Example 4, N-(3-((4aR,6R)-6-hydroxy-1,2,4,4a,5,6-hexahydro-[1,4]oxazino[4,3-a]quinolin-9-yl)-4-methylphenyl)-2-(trifluoromethyl)isonicotinamide] registered a concentration for half-maximal inhibition (IC50) of 0.0062 nM.
Take `Cc1ccc(NC(=O)c2ccnc(C(F)(F)F)c2)cc1-c1ccc2c(c1)N1CCOC[C@@H]1C[C@@H]2O` [Example 5, N-(3-((4aS,6S)-6-hydroxy-1,2,4,4a,5,6-hexahydro-[1,4]oxazino[4,3-a]quinolin-9-yl)-4-methylphenyl)-2-(trifluoromethyl)isonicotinamide]: the concentration for half-maximal inhibition (IC50) turned out to be 0.036 nM.
The compound `Cc1ccc(NC(=O)c2ccnc(C(C)(F)F)c2)cc1-c1ccc2c(c1)N1CCOC[C@H]1C[C@H]2O` [Example 13, 2-(1,1-difluoroethyl)-N-(3-((4aR,6R)-6-hydroxy-1,2,4,4a,5,6-hexahydro-[1,4]oxazino[4,3-a]quinolin-9-yl)-4-methylphenyl)isonicotinamide] returned a concentration for half-maximal inhibition (IC50) of 0.0055 nM.
In the case of `Cc1ccc(NC(=O)c2ccnc(C(C)(F)F)c2)cc1-c1ccc2c(c1)N1CCOC[C@H]1C[C@@]2(C)O` [Example 24, 2-(1,1-difluoroethyl)-N-(3-((4aR,6R)-6-hydroxy-6-methyl-1,2,4,4a,5,6-hexahydro-[1,4]oxazino[4,3-a]quinolin-9-yl)-4-methylphenyl)isonicotinamide], inhibition was half-maximal at 0.049 nM (IC50).
The value for `Cc1ccc(NC(=O)c2ccnc(C(C)(F)F)c2)cc1-c1ccc2c(c1)N1CCOC[C@@H]1C[C@]2(C)O` [Example 25, 2-(1,1-difluoroethyl)-N-(3-((4aS,6S)-6-hydroxy-6-methyl-1,2,4,4a,5,6-hexahydro-[1,4]oxazino[4,3-a]quinolin-9-yl)-4-methylphenyl)isonicotinamide] was 0.52 nM; that for `COC1CC2COCCN2c2cc(-c3cc(NC(=O)c4ccnc(C(C)(F)F)c4)ccc3C)cnc21` (centres unmarked) [Example 33, 2-(1,1-difluoroethyl)-N-(3-(6-methoxy-1,2,4,4a,5,6-hexahydro-[1,4]oxazino[4,3-a][1,5]naphthyridin-9-yl)-4-methylphenyl)isonicotinamide] was 0.0082 nM; that for `Cc1ccc(NC(=O)c2ccnc(C(C)(F)F)c2)cc1-c1ccc2c(c1)N1CCOC[C@@H]1C(CO)(CO)C2` [Example 53, (S)—N-(3-(5,5-bis(hydroxymethyl)-1,2,4,4a,5,6-hexahydro-[1,4]oxazino[4,3-a]quinolin-9-yl)-4-methylphenyl)-2-(1,1-difluoroethyl)isonicotinamide] was 0.0062 nM.
Take `Cc1ccc(NC(=O)c2ccnc(C(C)(F)F)c2)cc1-c1ccc2c(c1)N1CCOC[C@H]1C1(COC1)C2` [Example 57, (R)-2-(1,1-difluoroethyl)-N-(4-methyl-3-(1′,2′,4′,4a′-tetrahydro-6′H-spiro[oxetane-3,5′-[1,4]oxazino[4,3-a]quinolin]-9′-yl)phenyl)isonicotinamide]: the half-inhibitory concentration (IC50) turned out to be 0.011 nM. Against the preceding compound, the IC50 is about 1.8-fold higher.
In the case of `Cc1ccc(NC(=O)c2ccnc(C(C)(F)F)c2)cc1-c1ccc2c(c1)N1CCOC[C@@H]1C1(COC1)C2` [Example 58, (S)-2-(1,1-difluoroethyl)-N-(4-methyl-3-(1′,2′,4′,4a′-tetrahydro-6′H-spiro[oxetane-3,5′-[1,4]oxazino[4,3-a]quinolin]-9′-yl)phenyl)isonicotinamide], the IC50 came to 0.01 nM.
For the compound `Cc1ccc(NC(=O)c2ccnc(C(C)(F)F)c2)cc1-c1ccc2c(c1)N1CCOC[C@H]1[C@](F)(CO)C2` [Example 80, 2-(1,1-difluoroethyl)-N-(3-((4aS,5S)-5-fluoro-5-(hydroxymethyl)-1,2,4,4a,5,6-hexahydro-[1,4]oxazino[4,3-a]quinolin-9-yl)-4-methylphenyl)isonicotinamide], the 50% inhibitory concentration (IC50) was 0.42 nM.
As to `Cc1ccc(NC(=O)c2ccnc(C(C)(F)F)c2)cc1-c1ccc2c(c1)N1CCOC[C@@H]1[C@@](F)(CO)C2` [Example 81, 2-(1,1-difluoroethyl)-N-(3-((4aR,5R)-5-fluoro-5-(hydroxymethyl)-1,2,4,4a,5,6-hexahydro-[1,4]oxazino[4,3-a]quinolin-9-yl)-4-methylphenyl)isonicotinamide], the half-maximal inhibitory concentration (IC50) came out at 0.081 nM.
The value for `Cc1ncc(NC(=O)c2ccnc(C(C)(F)F)c2)cc1-c1ccc2c(c1)N1CCOC[C@H]1[C@](F)(CO)C2` [Example 84, 2-(1,1-difluoroethyl)-N-(5-((4aS,5S)-5-fluoro-5-(hydroxymethyl)-1,2,4,4a,5,6-hexahydro-[1,4]oxazino[4,3-a]quinolin-9-yl)-6-methylpyridin-3-yl)isonicotinamide] was 1 nM; that for `Cc1ncc(NC(=O)c2ccnc(C(C)(F)F)c2)cc1-c1ccc2c(c1)N1CCOC[C@@H]1[C@@](F)(CO)C2` [Example 85, 2-(1,1-difluoroethyl)-N-(5-((4aR,5R)-5-fluoro-5-(hydroxymethyl)-1,2,4,4a,5,6-hexahydro-[1,4]oxazino[4,3-a]quinolin-9-yl)-6-methylpyridin-3-yl)isonicotinamide] was 0.07 nM.
In turn, `Cc1ccc(NC(=O)c2ccnc(C(C)(F)F)c2)cc1-c1cc2n(c(=O)c1)CCC1COCCN21` (centres unmarked) [Example 95] had an IC50 of 0.03 nM.
Consider `Cc1ncc(NC(=O)c2ccnc(C(C)(F)F)c2)cc1-c1ccc2c(c1)N1CCOCC[C@@H]1C[C@@H]2O` [Example 97, 2-(1,1-difluoroethyl)-N-(5-((5aR,7S)-7-hydroxy-1,2,5,5a,6,7-hexahydro-4H-[1,4]oxazepino[4,5-a]quinolin-10-yl)-6-methylpyridin-3-yl)isonicotinamide], for which the half-inhibitory concentration (IC50) turned out to be 0.014 nM. This IC50 lies about 2.1-fold lower than the previous one.
The compound `Cc1ncc(NC(=O)c2ccnc(C(C)(F)F)c2)cc1-c1ccc2c(c1)N1CCOCC[C@H]1C[C@H]2O` [Example 98, 2-(1,1-difluoroethyl)-N-(5-((5aS,7R)-7-hydroxy-1,2,5,5a,6,7-hexahydro-4H-[1,4]oxazepino[4,5-a]quinolin-10-yl)-6-methylpyridin-3-yl)isonicotinamide] returned an IC50 of 0.56 nM.
The compound `Cc1ccc(NC(=O)c2ccnc(C(C)(F)F)c2)cc1-c1cnc2c(c1)N1CCOCC1C(CS(C)(=O)=O)C2` (centres unmarked) [Example 99, 2-(1,1-difluoroethyl)-N-(4-methyl-3-(5-((methylsulfonyl)methyl)-1,2,4,4a,5,6-hexahydro-[1,4]oxazino[4,3-a][1,5]naphthyridin-9-yl)phenyl)isonicotinamide] displayed an IC50 of 0.038 nM. Compared with the last compound, the IC50 is about 15-fold lower.
`Cc1ccc(NC(=O)c2ccnc(C(F)(F)F)c2)cc1-c1cnc2c(c1)N1CCOC[C@H]1C[C@H]2O` [Example 102, N-(3-((4aR,6R)-6-Hydroxy-1,2,4,4a,5,6-hexahydro-[1,4]oxazino[4,3-a][1,5]naphthyridin-9-yl)-4-methylphenyl)-2-(trifluoromethyl)isonicotinamide] registered an IC50 of under 0.0017 nM.
The compound `Cc1ccc(NC(=O)c2ccnc(C(F)(F)F)c2)cc1-c1cnc2c(c1)N1CCOC[C@@H]1C[C@@H]2O` [Example 103, N-(3-((4aS,6S)-6-hydroxy-1,2,4,4a,5,6-hexahydro-[1,4]oxazino[4,3-a][1,5]naphthyridin-9-yl)-4-methylphenyl)-2-(trifluoromethyl)isonicotinamide] gave a half-inhibitory concentration (IC50) of 0.013 nM.
The compound `Cc1ncc(NC(=O)c2cccc(C(F)(F)F)c2)cc1-c1cnc2c(c1)N1CCOC[C@H]1C[C@H]2O` [Example 105, N-(5-((4aR,6R)-6-Hydroxy-1,2,4,4a,5,6-hexahydro-[1,4]oxazino[4,3-a][1,5]naphthyridin-9-yl)-6-methylpyridin-3-yl)-3-(trifluoromethyl)benzamide] gave an IC50 of 0.045 nM.
